Read-outs that look alike come from different tables or passages of the source.
Columns and labels:
[1] = molecular target: T1, E. coli D516V (RIF^R) RNAP (Escherichia coli, UniProt P0A8V2, D516V); assay: biochemical
T1 construct: made in house

[2] = system: DPX2 cells; settings: for DPX2 Viability @ 6.25 μM: 24 h; for DPX2 Viability @ 25 μM: human
[3] = molecular target: T2, E. coli WT RNAP (Escherichia coli, UniProt P0A8V2); assay: biochemical
T2 construct: made in house

[4] = molecular target: T3, E. coli S531L (RIF^R) RNAP (Escherichia coli, UniProt P0A8V2, S531L); assay: biochemical
T3 construct: made in house

[5] = system: VERO cells (ATCC CRL-81); assay: Vero cell toxicity; type: cell-based; settings: Chlorocebus sabaeus, Vero; 72 hours exposure
Protocol: Cytotoxicity for a mammalian cell line was determined by exposing VERO cells (ATCC CRL-81) to serial dilutions of test compounds for 72 hours, followed by addition of resazurin and measurement of fluorescence after 4 hours incubation (Choules, et al., Antimnicrob. Agents Chemother. 2019, 63, e02204-02218).

[6] = system: M. tuberculosis H37Rv; assay: Minimum bactericidal concentration (MBC, CFU Assay); type: cell-based, Mycobacterium tuberculosis; settings: for MBC: Mycobacterium tuberculosis, 168 h, Day 7, M. tuberculosis H37Rv, ≥99% reduction in colony forming units, read-out: MBC99 Day 7 (CFU Assay) MBC99
[7] = system: MTB H37Rv ATCC 27294; assay: MIC, microplate Alamar Blue assay (MABA); type: cell-based, Mycobacterium tuberculosis; settings: for MIC: Mycobacterium tuberculosis, MTB H37Rv ATCC 27294, microplate Alamar Blue assay, lowest concentration giving ≥90% reduction in fluorescence, read-out: MIC90 MABA
[8] = CFU Assay MBC99 relative to rifampin (RMP = 1)

| Structure (SMILES) | IC50 [1] [µM] | DPX2 Viability @ 6.25 μM [2] [%] | DPX2 Viability @ 25 μM [2] [%] | IC50 [3] [µM] | IC50 [4] [µM] | IC50 [5] [µM] | MBC99 Day 7 (CFU Assay) MBC99 Rel to RMP [6, 8] | MBC [6] [µM] | MIC90 MABA Rel to RMP [7] | MIC [7] [µM] | MBC99 Day 7 (CFU Assay) MBC99 Rel to RMP [6] |
| --- | --- | --- | --- | --- | --- | --- | --- | --- | --- | --- | --- |
| CO[C@H]1/C=C/O[C@@]2(C)Oc3c(C)c(O)c4c(=O)c(c5oc6cccc(OCCCCN7CCN(C)CC7)c6nc-5c4c3C2=O)NC(=O)/C(C)=C\C=C\[C@H](C)[C@H](O)[C@@H](C)[C@@H](O)[C@@H](C)[C@H](OC(C)=O)[C@@H]1C [Compound 5a, (7S,9E,11S,12R,13S,14R,15R,16R,17S,18S,19E,21Z)-2,15,17-Trihydroxy-11-methoxy-3,7,12,14,16,18,22-heptamethyl-32-[4-(4-methylpiperazin-1-yl)butoxy]-6,23,37-trioxo-8,27,38-trioxa-24,34-diazahexacyclo[23.11.1.1^4,7.0^5,36.0^26,35.0^28,33]octatriaconta-1(36)2,4,9,19,21,25,28(33)29,31,34-undecaen-13-yl acetate] | 27 | 87 | 47 | 0.006 | 790 | > 8 | 0.77 | 0.1 | 3.1 | 0.092 | – |
| CO[C@H]1/C=C/O[C@@]2(C)Oc3c(C)c(O)c4c(=O)c(c5oc6cccc(OCCCCN7CCOCC7)c6nc-5c4c3C2=O)NC(=O)/C(C)=C\C=C\[C@H](C)[C@H](O)[C@@H](C)[C@@H](O)[C@@H](C)[C@H](OC(C)=O)[C@@H]1C [Compound 5b, (7S,9E,11S,12R,13S,14R,15R,16R,17S,18S,19E,21Z)-2,15,17-Trihydroxy-11-methoxy-3,7,12,14,16,18,22-heptamethyl-32-[4-(morpholin-4-yl)butoxy]-6,23,37-trioxo-8,27,38-trioxa-24,34-diazahexacyclo[23.11.1.1^4,7.0^5,36.0^26,35.0^28,33]octatriaconta-1(36)2,4,9,19,21,25,28(33)29,31,34-undecaen-13-yl acetate] | 65 | 81 | 45 | 0.007 | 390 | > 8 | 0.38 | 0.05 | 0.70 | 0.021 | – |
| CO[C@H]1/C=C/O[C@@]2(C)Oc3c(C)c(O)c4c(=O)c(c5oc6cc(N7CCN(CC(C)C)CC7)cc(OCCCCN7CCOCC7)c6nc-5c4c3C2=O)NC(=O)/C(C)=C\C=C\[C@H](C)[C@H](O)[C@@H](C)[C@@H](O)[C@@H](C)[C@H](OC(C)=O)[C@@H]1C [Compound 6a, (7S,9E,11S,12R,13S,14R,15R,16R,17S,18S,19E,21Z)-2,15,17-Trihydroxy-11-methoxy-3,7,12,14,16,18,22-heptamethyl-30-[4-(2-methylpropyl)piperazin-1-yl]-32-[4-(morpholin-4-yl)butoxy]-6,23,37-trioxo-8,27,38-trioxa-24,34-diazahexacyclo[23.11.1.1^4,7.0^5,36.0^26,35.0^28,33]octatriaconta-1(36)2,4,9,19,21,25,28(33)29,31,34-undecaen-13-yl acetate] | 39 | 102 | 86 | 0.006 | 80 | > 8 | – | 0.01 | 0.80 | 0.092 | 0.08 |
| CO[C@H]1/C=C/O[C@@]2(C)Oc3c(C)c(O)c4c(=O)c(c5oc6cc(N7CCN(CC(C)C)CC7)cc(OCCCCN7CCN(CCn8ccnc8)CC7)c6nc-5c4c3C2=O)NC(=O)/C(C)=C\C=C\[C@H](C)[C@H](O)[C@@H](C)[C@@H](O)[C@@H](C)[C@H](OC(C)=O)[C@@H]1C [Compound 6b, (7S,9E,11S,12R,13S,14R,15R,16R,17S,18S,19E,21Z)-2,15,17-trihydroxy-32-(4-{4-[2-(1H-imidazol-1-yl)ethyl]piperazin-1-yl}butoxy)-11-methoxy-3,7,12,14,16,18,22-heptamethyl-30-[4-(2-methylpropyl)piperazin-1-yl]-6,23,37-trioxo-8,27,38-trioxa-24,34-diazahexacyclo[23.11.1.1^4,7.0^5,36.0^26,35.0^28,33]octatriaconta-1(36)2,4,9,19,21,25,28(33)29,31,34-undecaen-13-yl acetate] | 51 | 120 | 57 | 0.006 | 52 | > 8 | 0.23 | 0.03 | 1.6 | 0.021 | – |
| CO[C@H]1/C=C/O[C@@]2(C)Oc3c(C)c(O)c4c(=O)c(c5oc6cc(N7CCN(C)CC7)cc(OCCCCN7CCN(C(=O)Cn8ccnc8)CC7)c6nc-5c4c3C2=O)NC(=O)/C(C)=C\C=C\[C@H](C)[C@H](O)[C@@H](C)[C@@H](O)[C@@H](C)[C@H](OC(C)=O)[C@@H]1C [Compound 6c, (7S,9E,11S,12R,13S,14R,15R,16R,17S,18S,19E,21Z)-2,15,17-Trihydroxy-32-(4-{4-[2-(1H-imidazol-1-yl)acetyl]piperazin-1-yl}butoxy)-11-methoxy-3,7,12,14,16,18,22-heptamethyl-30-(4-methylpiperazin-1-yl)-6,23,37-trioxo-8,27,38-trioxa-24,34-diazahexacyclo[23.11.1.1^4,7.0^5,36.0^26,35.0^28,33]octatriaconta-1(36)2,4,9,19,21,25,28(33)29,31,34-undecaen-13-yl acetate] | 12 | 108 | 111 | 0.01 | 230 | 53 | 0.38 | 0.05 | 2.7 | 0.039 | – |
| CO[C@H]1/C=C/O[C@@]2(C)Oc3c(C)c(O)c4c(=O)c(c5oc6cc(N7CCN(CC(C)C)CC7)cc(OCCCCN7CCN(C(=O)Cn8ccnc8)CC7)c6nc-5c4c3C2=O)NC(=O)/C(C)=C\C=C\[C@H](C)[C@H](O)[C@@H](C)[C@@H](O)[C@@H](C)[C@H](OC(C)=O)[C@@H]1C [Compound 6d, (7S,9E,11S,12R,13S,14R,15R,16R,17S,18S,19E,21Z)-2,15,17-Trihydroxy-32-(4-{4-[2-(1H-imidazol-1-yl)acetyl]piperazin-1-yl}butoxy)-11-methoxy-3,7,12,14,16,18,22-heptamethyl-30-[4-(2-methylpropyl)piperazin-1-yl]-6,23,37-trioxo-8,27,38-trioxa-24,34-diazahexacyclo[23.11.1.1^4,7.0^5,36.0^26,35.0^28,33]octatriaconta-1(36)2,4,9,19,21,25,28,30,32,34-undecaen-13-yl acetate] | 59 | 104 | 90 | 0.008 | 93 | > 8 | 0.23 | 0.03 | 1.3 | 0.024 | – |

From patent US20250188092A1, “RIFAMYCIN ANALOGS” (THE REGENTS OF THE UNIVERSITY OF MICHIGAN, priority 2021, published 2025)
